Experimental data reported in PubChem BioAssay AID2305 (GlaxoSmithKline (GSK), 2010).

The molecules below were run on P. falciparum 3D7 growth, pLDH absorbance (assay: P. falciparum 3D7 growth inhibition, dose response, strain 3D7 (AID 2305)).
Work on `Cc1cc(N[C@@H](CC(C)C)C(=O)Nc2ccccc2)nc(NCc2ccccc2C)n1` yielded an IC50 of 0.78 µM. `O=C(NCCc1ccccc1)[C@H](Cc1ccccc1)Nc1ccnc(NCC2CCCCC2)n1` gave an IC50 of 1.38 µM. `CCCN(C(=O)c1ccccc1C)c1nnc(-c2ccccc2C)s1` gave an IC50 of 1.11 µM. Molecule `CCNc1cc(C(=O)N[C@@H](Cc2ccccc2)[C@H](O)CNC2(CC)CCCCC2)cc(N2CCCCS2(=O)=O)c1` has an IC50 of 0.27 µM. With `CCCc1cc(=O)[nH]c(-n2nc(C)cc2NC(=O)c2cc3ccccc3o2)n1` the IC50 was 1.11 µM. Work on `COc1ccc(-c2cnc3[nH]cc(-c4ccc(C(=O)O)cc4)c3c2)cn1` yielded an IC50 of 0.54 µM. `Oc1ccc(Cc2ccccc2)cc1CNC1CCCCC1` showed an IC50 of 0.19 µM. `O=C(Cn1c(CCc2cccc(F)c2F)nc(=O)c2ccccc21)N(CCCN1CCCC1)Cc1ccc(-c2ccc(C(F)(F)F)cc2)cc1` was tested, and the IC50 was 0.94 µM. Molecule `Nc1nc2ccc(S(=O)(=O)Nc3ccc(C(=O)N[C@@H](CCC(=O)O)C(=O)O)c(F)c3)cc2c(=O)[nH]1` has an IC50 of 0.82 µM. `CCC[C@@H]1CCN[C@H]([C@H](O)c2ccnc3ccc(OC)cc23)C1` showed an IC50 of 0.73 µM. Molecule `CCOc1ccc2c(c1)OC(c1ccccc1)(C(F)(F)F)NC2=O` (stereo unspecified) has an IC50 of 0.17 µM. With `COC(=O)c1ccc(CC(C)NCC(O)c2cccc(Oc3cccc(C(F)(F)F)c3)c2)cc1` (stereo unspecified) the IC50 was 1.17 µM. `Cc1cc(NCC(C)C)c2[nH]nc(-c3ccccc3)c2n1` showed an IC50 of 0.74 µM. With `CCN(CC)CCCNc1c2ccccc2nc2ccccc12` the IC50 was 0.75 µM. In the case of `COc1cc(OC)c(OC)cc1C=NNc1cc(C)nc2ccccc12`, the IC50 is reported as 0.3 µM. Work on `Cc1c(S(=O)(=O)Nc2cccc(CCN3CCCCC3CCN3CCCC3)c2)sc2ccc(Cl)cc12` (stereo unspecified) yielded an IC50 of 0.93 µM. In the case of `Cc1ccc(Nc2nc(C)cc(NC3CCN(C)CC3)n2)cc1`, the IC50 is reported as 0.5 µM. `FC(F)c1nc2ccccc2n1-c1nc(N2CCOCC2)nc(N2CCOCC2)n1` gave an IC50 of 0.76 µM. For `CC1CCCN(S(=O)(=O)c2ccc(NC(=O)c3cc(-c4ccccc4O)n[nH]3)cc2)C1` (stereo unspecified), the IC50 was 0.76 µM. Molecule `OCCN1CCN(c2ccc(Nc3ccnc4cc5ccccc5cc34)cc2)CC1` has an IC50 of 0.04 µM. `OCC1CCCCN1Cc1cccc(-c2cccc(-c3nc4ccccc4[nH]3)c2)c1` (stereo unspecified) showed an IC50 of 0.78 µM. In the case of `OC1CCCN(Cc2cccc(-c3ccc(-c4nc5ccc(C(F)(F)F)cc5[nH]4)cc3)c2)C1` (stereo unspecified), the IC50 is reported as 0.69 µM. `O=[N+]([O-])c1nc(Br)n(Cc2ccc(Cl)cc2)n1` gave an IC50 of 0.36 µM. `Cc1cccc2[nH]c(-c3ccc(-c4ccc(CNCCc5ccncc5)cc4)cc3)nc12` was tested, and the IC50 was 0.21 µM. `Cc1cc(Nc2ccc(C)c(C)c2)n2nc(C)nc2n1` showed an IC50 of 0.6 µM. In the case of `O=C(Nc1cccc(-c2ccc(-c3nc4ccc(C(F)(F)F)cc4[nH]3)cc2)c1)c1cccnc1`, the IC50 is reported as 0.57 µM. `Cn1cc(C2CCN(CCCCNC(=O)c3sc(-c4ccc(C(F)(F)F)cc4)nc3CO)CC2)c2ccccc21` gave an IC50 of 1.06 µM. `CN1CCCN(Cc2cccc(-c3ccc(NS(=O)(=O)c4cccc5cccnc45)cc3)c2)CC1` gave an IC50 of 0.96 µM. With `O=C(NCc1ccc(C(=O)NC2CCCCCC2)cc1)c1ccc(O)c(-c2ccc(Cl)c(Cl)c2)c1` the IC50 was 1.06 µM. Molecule `CCC(C)c1ccc(Nc2nc(C)cc(N(CC)CCCN3CCCCC3)n2)cc1` (stereo unspecified) has an IC50 of 0.33 µM. In the case of `Cc1sc(CNCCCNc2cc(=O)c3ccccc3[nH]2)c(I)c1C`, the IC50 is reported as 0.85 µM. Work on `NS(=O)(=O)CCc1cccc(Nc2nccc(-c3c(-c4cccc(NC(=O)c5c(F)cccc5F)c4)nn4ccccc34)n2)c1` yielded an IC50 of 0.06 µM. Work on `O=C(Nc1ccc(-c2cccc(-c3nc4ccc(F)cc4[nH]3)c2)cc1)Nc1ccc(F)c(F)c1F` yielded an IC50 of 0.74 µM. Work on `COc1cc2c(cc1OC)CN(c1cc(N)c3cc(OC)c(OC)cc3n1)CC2` yielded an IC50 of 0.55 µM. `COc1ccc2ncc(F)c(CCN3C[C@H](CNCc4ccc5ccccc5c4)[C@H](O)C3)c2n1` was tested, and the IC50 was 0.5 µM. In the case of `CCCn1c(SCC(=O)Nc2cc(Cl)ccc2Cl)n[nH]c1=O`, the IC50 is reported as 1 µM. `COc1ccc(CNc2ncc(-c3ccsc3)c(-c3nccs3)n2)cc1OC` showed an IC50 of 0.09 µM. In the case of `c1ccc(-c2cccnn2)cc1`, the IC50 is reported as 0.91 µM. `CCCCCN1CCCC1CNS(=O)(=O)c1cccc(C(=O)Nc2cccc(C#N)c2)c1` (stereo unspecified) gave an IC50 of 0.98 µM. In the case of `CCNC(=O)N1CCN(c2nc(-c3ccccc3)nc(COC)c2Cc2ccc(C)cc2)CC1`, the IC50 is reported as 0.99 µM. `Cc1c(CNCCCNc2cc(=O)c3ccccc3[nH]2)sc(C(F)=C(F)F)c1Br` gave an IC50 of 0.84 µM. For `COc1ccc(CNC2Cc3ccccc3C2)cc1-c1ccc(S(=O)(=O)NCc2cccnc2)s1`, the IC50 was 1.11 µM. In the case of `CCN(CC)CCNc1ccnc2[nH]c3ccc(Cl)cc3c12`, the IC50 is reported as 0.24 µM. `CCn1ccc2c(N3CCCCS3(=O)=O)cc(C(=O)N[C@@H](Cc3ccccc3)[C@H](O)CNC(C)(C)c3cccc(C(F)(F)F)c3)cc21` gave an IC50 of 0.13 µM. `CC(C)NCc1cccc(-c2cccc(NC(=O)c3ccc(C#N)cc3)c2)c1` showed an IC50 of 0.65 µM. Molecule `COc1cccc2c(NN=Cc3cccc(F)c3)ccnc12` has an IC50 of 0.93 µM. `CC(C)[C@H]1CC[C@H](C)C[C@@H]1OC(=O)N[C@@H](Cc1ccc(O)cc1)C(=O)NC1CCN(Cc2ccc(OCCCN(C)C)cc2)C1` (stereo partly specified) gave an IC50 of 0.76 µM. For `CS(=O)(=O)Nc1ccc(-c2cnc3[nH]cc(-c4ccc(C(=O)O)cc4)c3c2)cc1`, the IC50 was 0.8 µM. Molecule `CCOC(=O)c1ccc(NC(=O)N[C@@H](Cc2ccccc2)C(=O)NC2CCN(Cc3ccc(O)cc3)C2)cc1` (stereo partly specified) has an IC50 of 0.63 µM. `CCn1cnc2c(Nc3cccc([N+](=O)[O-])c3)nc(N3CCC(N4CCCCC4)CC3)nc21` gave an IC50 of 0.95 µM. For `CCCCCCC1(C)N=C(N)N=C(N)C1c1ccc(Cl)c(Cl)c1` (stereo unspecified), the IC50 was 0.13 µM. Work on `COc1cccc2cc(C(=O)N[C@@H](CC(C)C)C(=O)N[C@H](/C=N/NC(=O)OC(C)(C)C)CC(=O)OC(C)(C)C)oc12` yielded an IC50 of 0.4 µM. `Cc1cccc2[nH]c(-c3ccc(-c4ccc(NC(=O)Nc5cccc(C#N)c5)cc4)s3)nc12` showed an IC50 of 0.12 µM. `NC(=O)c1cc2nc(Nc3ccc(F)cc3)nc(NC3CCC3)c2[nH]1` showed an IC50 of 0.2 µM. For `c1cc(Cc2ccc(Nc3c4ccccc4nc4ccccc34)cc2)cc(Nc2c3ccccc3nc3ccccc23)c1`, the IC50 was 0.14 µM. With `COc1cccc(C(=O)C2CC2CN2CC=C(c3c[nH]c4ccc(OC)nc34)CC2)c1` (stereo unspecified) the IC50 was 0.53 µM. In the case of `CN(C)CCCOc1ccc(CCCCc2ccc(Cl)cc2C(=O)c2ccccc2)cc1`, the IC50 is reported as 1.03 µM. Work on `CCOc1c(N2CCN(CCCCNC(=O)c3ccc(NC(=O)c4ccc(Cl)cc4)cc3)CC2)ccc2ccccc12` yielded an IC50 of 0.68 µM. For `Cc1ccccc1C1CCN(C2CCC(NC(=O)c3cncc(-c4ccccc4)c3)CC2)CC1` (stereo unspecified), the IC50 was 0.93 µM. With `Cc1cc(-c2cc3nc4c(c(=O)n3[nH]2)CCCC4)c(C)o1` the IC50 was 0.82 µM. `CCC(C)c1ccc(-n2c(Nc3ccccc3)nc3cc(S(N)(=O)=O)ccc32)cc1` (stereo unspecified) gave an IC50 of 1.06 µM. `COc1ccc(C2CC(c3cccs3)=NN2C(=O)c2ccccc2)cc1OC` (stereo unspecified) was tested, and the IC50 was 0.66 µM. Work on `Cc1nc2nc(N)nc(N)c2c(C)c1Cc1cccc(F)c1` yielded an IC50 of 0.34 µM. `Cc1c[nH]c2cc(/C=C/C(=O)NC3CCC(CCN4CCc5ccc(C#N)cc5CC4)CC3)ccc12` (stereo unspecified) showed an IC50 of 0.8 µM. For `COc1ccc(N2CCN(CCCCNC(=O)c3ccc(NC(=O)c4cc(Cl)cc(Cl)c4)cc3)CC2)c(OC)c1`, the IC50 was 0.3 µM. In the case of `C[C@H](Nc1nc(C(Oc2ccccc2)c2ccccc2)nc2[nH]ncc12)c1ccccc1` (stereo partly specified), the IC50 is reported as 0.48 µM. In the case of `CC(C)Nc1cc(C(=O)N[C@@H](Cc2ccccc2)[C@H](O)CNCc2cccc(C(F)(F)F)c2)c(F)c(N2CCCCS2(=O)=O)c1`, the IC50 is reported as 0.79 µM. For `CS(=O)(=O)c1ccc(CCNCc2ccc(-c3cccc(-c4nc5ccccc5[nH]4)c3)cc2)cc1`, the IC50 was 0.19 µM. Work on `CC(C)CCN(Cc1cncn1Cc1cccc(Cl)c1)C(=O)c1cncc(-c2ccccc2)c1` yielded an IC50 of 0.76 µM. Work on `COc1ccc(C=NNc2nc3ccccc3[nH]2)cc1O` yielded an IC50 of 0.92 µM. For `COc1cc(OC)cc(-c2nc3c(C#N)c(OCCN(C)C)ccc3[nH]2)c1`, the IC50 was 0.65 µM. `CC(CN1CCN(C)CC1)C(=O)Nc1ccc(-c2ccc(-c3nc4ccc(F)cc4[nH]3)cc2)cc1` (stereo unspecified) showed an IC50 of 0.79 µM. Work on `c1ccc(C(c2cccs2)N2CCN(Cc3ccc(OCCCN4CCCCC4)cc3)CC2)cc1` (stereo unspecified) yielded an IC50 of 1.23 µM. `CCCCC(O)c1cc(O)c2c(c1)OC(C)(C)CC2C1=CCN(Cc2ccc3ccccc3c2)CC1` (stereo unspecified) showed an IC50 of 0.97 µM. `Nc1nccc(-c2ccc3c(/C=C/c4ccccc4)cnc(N)c3c2)n1` showed an IC50 of 0.62 µM. Molecule `COc1ccc([C@@]23Oc4cc(OC)cc(OC)c4[C@]2(O)C2(CC3c3ccccc3)SCCCS2)cc1` (stereo partly specified) has an IC50 of 0.12 µM. `O=C(Nc1nc2cc(S(=O)(=O)NCc3ccc(Cl)c(Cl)c3)ccc2n1CCCn1ccnc1)c1ccc(Cl)cc1` was tested, and the IC50 was 0.73 µM. For `COc1ccc(O)c(C(=O)c2cc(C(=O)NCCc3ccccc3)c(=O)n(CCc3ccccc3)c2)c1`, the IC50 was 1.01 µM. Work on `O=C(/C=C/c1ccc(Cl)c(Cl)c1)N1CC[C@H]2C[C@H](N3CCC(c4c[nH]c5ccccc45)CC3)CC[C@@H]2C1` yielded an IC50 of 0.17 µM. `CN(Cc1cccc(O)c1)C1CCN(c2cc(NC(=O)c3ccc(F)cc3)ccn2)CC1` was tested, and the IC50 was 0.96 µM. Work on `O=C1CCCN1CCCNCc1ccc(-c2ccc(-c3nc4ccc(C(F)(F)F)cc4[nH]3)cc2)cc1` yielded an IC50 of 0.58 µM. Molecule `CCNc1cc(C(=O)N[C@@H](Cc2ccccc2)[C@H](O)CNCCc2cc(OC)cc(OC)c2)cc(N2CCCCS2(=O)=O)c1` has an IC50 of 1.14 µM. `COc1ccc(CNCCc2cccs2)cc1-c1ccc(S(=O)(=O)NCCN2CCCC2)cc1` showed an IC50 of 0.65 µM. `CC(C)C(=O)NC(c1cccs1)c1cc(Cl)c2cccnc2c1O` (stereo unspecified) was tested, and the IC50 was 0.58 µM. In the case of `Cc1cc(OCC2CCCN(c3ncc(C(=O)NC4CC4)cc3Cl)C2)ccc1F` (stereo unspecified), the IC50 is reported as 1.49 µM. Molecule `c1ccc(COc2ccc(Nc3ncnc4ccc(-c5ccc(CN6CCSCC6)o5)cc34)cc2)cc1` has an IC50 of 0.83 µM. For `CC(C)(C)c1ccc(NC(=O)c2ccc(CN3CCCN(Cc4cccc(C#N)c4)CC3)cc2)cc1`, the IC50 was 0.64 µM. In the case of `COc1ccc2nccc([C@@H](O)CN3CCC(NCc4nc5c(F)cccc5[nH]4)CC3)c2c1`, the IC50 is reported as 0.47 µM. Work on `c1ccc(-c2nc(Nc3ccncc3)sc2-c2ccccc2)cc1` yielded an IC50 of 0.81 µM. Work on `CC(=O)N/N=C/[C@H](CCc1ccccc1)NC(=O)[C@H](CC(C)C)NC(=O)c1ccc(OCCN2CCOCC2)cc1` yielded an IC50 of 0.22 µM. `Cc1cc(N[C@@H](Cc2ccccc2)C(=O)NCCOc2ccccc2)nc(NCCOc2ccccc2)n1` gave an IC50 of 1.36 µM. `NC(N)=Nc1nc(-c2cc(NC(=O)C(F)(F)F)cc([N+](=O)[O-])c2)cs1` showed an IC50 of 0.78 µM. In the case of `NCCCN(Cc1ccc(Cl)c(Cl)c1)C(=O)Nc1ccc(Cl)c(Cl)c1`, the IC50 is reported as 0.9 µM. Molecule `CC(C)c1ccc(CN2CCC(NC(=O)c3ccc(-c4ccccc4F)s3)CC2)cc1` has an IC50 of 1.55 µM. `O=C(NC1CCCCC1)N(Cc1cccc(-c2ccc(CNCCc3ccccc3)cc2)c1)C1CCN(Cc2ccccc2)CC1` gave an IC50 of 0.65 µM. Molecule `Oc1ccccc1CNCc1ccc(-c2cnc(N3CCCC(c4ccccc4)C3)nc2)cc1` (stereo unspecified) has an IC50 of 0.69 µM.
